Experiments:
[1] = Cytotoxicity against mouse wild type fibroblast cells by MTT assay; assay type: cell-based
MEF = assay: Cytotoxicity against FKBP deficient MEF cells by MTT assay; assay type: cell-based; conditions: Mus musculus

Q: What does the source list for `CN(Cc1cnc2nc(N)nc(N)c2n1)c1ccc(C(=O)NC(CCC(=O)O)C(=O)O)cc1` (single isomer, unassigned) [METHOTREXATE]?
A: IC50 [1]: 180 nM; IC50 (MEF): 120 nM

From ChEMBL document CHEMBL1147928, “Engineering small molecule specificity in nearly identical cellular environments” (Bioorg Med Chem Lett, 2007)
